We go through four compounds from US9951089B2, “Methods of treating a fatty acid amide hydrolase-mediated condition” (INFINITY PHARMACEUTICALS, INC., priority 2010, dated 2018).

The structures appear in SMILES notation.

A short description of data set [1]: Compatibility study: stability of drug product suspended in CMC vehicle. To be noted: suspension in carboxymethylcellulose sodium (CMC) vehicle. The data set is classed as physicochemical. An excerpt: (§1) In the clinic, protocol-specified portions of drug product are suspended in a vehicle consisting of commercially available medium viscosity USP carboxymethylcellulose sodium (CMC) in Sterile Water for Injection (SWFI). CMC is a chemically stable compound that is commonly used in oral pharmaceutical formulations and appears on the FDA list of substances that are Generally Recognized As Safe (GRAS).

The nature of data set [2]: Solubility plot in 2-MeTHF:n-heptane. It counts as physicochemical. To be noted: 2-MeTHF:n-heptane solvent mixture, organic solvent or mixture; mixture of 2-MeTHF:n-heptane, at least a 2:1 ratio. From the text: In order to further simplify the reaction workup transition, water-miscible THF was replaced with water immiscible 2-MeTHF as the reaction co-solvent with n-heptane, thus eliminating the need for MTBE in the workup. […] This afforded a relatively wide solubility range for both the reaction and the workup while still keeping the solvent volumes at reasonable levels for the telescoped steps.

The nature of data set [3]: Solubility of drug product in water. To be noted: crystalline solid. It counts as physicochemical.
From the text: as §1

A short description of data set [4]: Material B/Form A relative humidity stressing (conversion study). It counts as physicochemical. To be noted: approximately 75% R.H. and 41° C.
Data set [5] can be described thus: Relative humidity stressing of Form A, XRPD read-out. The data set is classed as physicochemical. To be noted: 7 days. The protocol:
(§2) XRPD patterns were collected with an Inel XRG-3000 diffractometer. An incident beam of Cu Kα radiation was produced using a fine-focus tube and a parabolically graded multilayer mirror. Prior to the analysis, a silicon standard (NIST SRM 640c) was analyzed to verify the Si 111 peak position. A specimen of the sample was packed into a thin-walled glass capillary, and a beam-stop was used to minimize the background from air. Diffraction patterns were collected in transmission geometry using Windif v. 6.6 software and a curved position-sensitive Equinox detector with a 2θ range of 120°.
(§3) XRPD patterns were collected with a PANALYTICAL® X'Pert PRO MPD diffractometer using an incident beam of Cu radiation produced using an Optix long, fine-focus source. An elliptically graded multilayer mirror was used to focus Cu Kα X-rays through the specimen and onto the detector. Prior to the analysis, a silicon specimen (NIST SRM 640c) was analyzed to verify the Si 111 peak position. A specimen of the sample was sandwiched between 3 μm-thick films and analyzed in transmission geometry. A beam-stop and short antiscatter extension were used to minimize the background generated by air. Soller slits for the incident and diffracted beams were used to minimize broadening from axial divergence. Diffraction patterns were collected using a scanning position-sensitive detector (X'CELERATOR® located 240 mm from the specimen and Data Collector software v. 2.2b.
(§4) Form A crystal form of Compound 1 was subjected to (1) mechanical stressing experiments and (2) relative humidity stressing experiments, where the material was subjected to different levels of relative humidity (R.H.) and temperature.

Data set [6] can be described thus: Mechanical stressing of Form A, XRPD read-out. The data set is classed as physicochemical. The method, then: as §2, §3, §4

Take `OB(O)c1ccc(-c2cccc(F)c2)cc1F` [Compound 1, 3,3′-difluorobiphenyl-4-ylboronic acid]: the “stability of the drug product suspended in CMC” value in data set [1] is “at least 48 hours”. Besides, the solubility in data set [2] is over 100 mg/mL. For the same compound, the solubility in water result in data set [3] is given as “sparingly soluble”.

Consider `OB(O)c1ccc(-c2cccc(F)c2)cc1F` [Material B, 3,3′-difluorobiphenyl-4-ylboronic acid], for which the “crystal form conversion under humidity stressing” value is “The same mixture” in data set [4] (after 4, 7, and 14 days); “convert to a mixture of Material B and Form A” in data set [4] (as early as 1 day).

In turn, `Fc1cccc(-c2ccc(B3OB(c4ccc(-c5cccc(F)c5)cc4F)OB(c4ccc(-c5cccc(F)c5)cc4F)O3)c(F)c2)c1` [Compound 2, 2,4,6-tris(3,3′-difluorobiphenyl-4-yl)-1,3,5,2,4,6-trioxatriborinane] displayed a melting point of 238 to 241 °C.

For the compound `OB(O)c1ccc(-c2cccc(F)c2)cc1F` [Form A, 3,3′-difluorobiphenyl-4-ylboronic acid], the “stability to humidity stressing” value in data set [5] (75% R.H., about 40° C.) was “stable”; in data set [5] (75% R.H., room temperature), “stable”; in data set [5] (97% R.H., room temperature), “stable”. The “XRPD Result after relative humidity stressing” value in data set [5] (75% RH, 40° C.) is listed as “Form A”; in data set [5] (75% RH, RT) it was “Form A”; in data set [5] (97% RH, RT) it was “Form A”. Further, the “XRPD Result after mechanical stressing” value in data set [6] (compress, 10,000 lb, 5 min., no solvent) is recorded as “Form A, low”; in data set [6] (mill, 30 Hz, 20 min., ACN), “Form A”; in data set [6] (mill, 30 Hz, 20 min., MEK) it was “Form A”; in data set [6] (mill, 30 Hz, 20 min., THF), “Form A”; in data set [6] (mill, 30 Hz, 20 min., no solvent), “Form A, low”.
